Source: ChEMBL document CHEMBL1201862, “PubChem BioAssay data set” (2004)
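Five concentrations, 48 hours, 96-well plates. GI50 marks 50% less growth.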 The source made the active and inactive calls. Cut-off read from the data, not from the text of the source: active = GI50 up to about 1.1 µM and inactive = higher.

What was measured:
Experiment in all cases: inhibition of tumour cell growth, NCI panel, 48 h
786-0 = test system: 786-0
A498 = test system: A498
A549 = test system: A549
ACHN = test system: ACHN
CAKI-1 = test system: CAKI-1
CCRF-CEM = test system: CCRF-CEM
COLO 205 = test system: COLO 205
DLD-1 = test system: DLD-1
DMS-273 = test system: DMS-273
EKVX = test system: EKVX
HCC 2998 = test system: HCC 2998
HCT-116 = test system: HCT-116
HCT-15 = test system: HCT-15
HL-60 = test system: HL-60
HOP-18 = test system: HOP-18
HOP-62 = test system: HOP-62
HT-29 = test system: HT-29
IGROV-1 = test system: IGROV-1
K562 = test system: K562
KM-20L2 = test system: KM-20L2
KM12 = test system: KM12
LOX IMVI = test system: LOX IMVI
LXFL 529 = test system: LXFL 529
M14 = test system: M14
M19-MEL = test system: M19-MEL
MOLT-4 = test system: MOLT-4
Malme-3M = test system: Malme-3M
NCI-H226 = test system: NCI-H226
NCI-H23 = test system: NCI-H23
NCI-H460 = test system: NCI-H460
NCI-H522 = test system: NCI-H522
OVCAR-3 = test system: OVCAR-3
OVCAR-4 = test system: OVCAR-4
OVCAR-5 = test system: OVCAR-5
OVCAR-8 = test system: OVCAR-8
RPMI-8226 = test system: RPMI-8226
RXF 393 = test system: RXF 393
SF-268 = test system: SF-268
SF-295 = test system: SF-295
SF-539 = test system: SF-539
SK-MEL-28 = test system: SK-MEL-28
SK-MEL-2 = test system: SK-MEL-2
SK-MEL-5 = test system: SK-MEL-5
SK-OV-3 = test system: SK-OV-3
SN12C = test system: SN12C
SNB-19 = test system: SNB-19
SNB-75 = test system: SNB-75
SNB-78 = test system: SNB-78
SR = test system: SR
SW-620 = test system: SW-620
TK-10 = test system: TK-10
U-251 = test system: U-251
UACC-257 = test system: UACC-257
UACC-62 = test system: UACC-62
UO-31 = test system: UO-31
XF498 = test system: XF498

With `COC(=O)C(=O)C(C#N)c1cccc(Cl)c1` (stereo unspecified) the GI50 (786-0) was > 100 µM (inactive), the GI50 (A498) was > 100 µM (inactive) and the GI50 (A549) was > 100 µM (inactive). The GI50 (ACHN) was > 100 µM (inactive), the GI50 (CAKI-1) was > 100 µM (inactive) and the GI50 (CCRF-CEM) was > 100 µM (inactive). For the same molecule, the GI50 (COLO 205) was > 100 µM (inactive), the GI50 (DLD-1) was > 100 µM (inactive) and the GI50 (DMS-273) was > 100 µM (inactive). For the same molecule, the GI50 (EKVX) was > 100 µM (inactive), the GI50 (HCC 2998) was > 100 µM (inactive) and the GI50 (HCT-116) was > 100 µM (inactive). For the same molecule, the GI50 (HCT-15) was greater than 100 µM, the GI50 (HL-60) was > 100 µM (inactive) and the GI50 (HOP-18) was > 100 µM (inactive). The GI50 (HOP-62) was > 100 µM (inactive), the GI50 (HT-29) was > 100 µM (inactive) and the GI50 (IGROV-1) was > 100 µM (inactive). The GI50 (K562) was > 100 µM (inactive), the GI50 (KM-20L2) was > 100 µM (inactive) and the GI50 (KM12) was > 100 µM (inactive). For the same molecule, the GI50 (LOX IMVI) was > 100 µM (inactive), the GI50 (LXFL 529) was > 100 µM (inactive) and the GI50 (M14) was > 100 µM (inactive). The GI50 (M19-MEL) was > 100 µM (inactive), the GI50 (MOLT-4) was > 100 µM (inactive) and the GI50 (Malme-3M) was > 100 µM (inactive). The GI50 (NCI-H226) was > 100 µM (inactive), the GI50 (NCI-H23) was > 100 µM (inactive) and the GI50 (NCI-H460) was > 100 µM (inactive). For the same molecule, the GI50 (NCI-H522) was > 100 µM (inactive), the GI50 (OVCAR-3) was > 100 µM (inactive) and the GI50 (OVCAR-4) was > 100 µM (inactive). For the same molecule, the GI50 (OVCAR-5) was > 100 µM (inactive), the GI50 (OVCAR-8) was > 100 µM (inactive) and the GI50 (RPMI-8226) was > 100 µM (inactive). The GI50 (RXF 393) was > 100 µM (inactive), the GI50 (SF-268) was > 100 µM (inactive) and the GI50 (SF-295) was > 100 µM (inactive). The GI50 (SF-539) was > 100 µM (inactive), the GI50 (SK-MEL-28) was > 100 µM (inactive) and the GI50 (SK-MEL-2) was > 100 µM (inactive). For the same molecule, the GI50 (SK-MEL-5) was > 100 µM (inactive), the GI50 (SK-OV-3) was > 100 µM (inactive) and the GI50 (SN12C) was > 100 µM (inactive). For the same molecule, the GI50 (SNB-19) was > 100 µM (inactive), the GI50 (SNB-75) was > 100 µM (inactive) and the GI50 (SNB-78) was > 100 µM (inactive). For the same molecule, the GI50 (SR) was > 100 µM (inactive), the GI50 (SW-620) was > 100 µM (inactive) and the GI50 (TK-10) was > 100 µM (inactive). The GI50 (U-251) was > 100 µM (inactive), the GI50 (UACC-257) was > 100 µM (inactive) and the GI50 (UACC-62) was > 100 µM (inactive). For the same molecule, the GI50 (UO-31) was > 100 µM (inactive) and the GI50 (XF498) was > 100 µM (inactive).
In the case of `CCOc1ccc(O)cc1[P+](c1ccccc1)(c1ccccc1)c1ccccc1`, the GI50 (786-0) is reported as 7.24 µM (inactive), the GI50 (A498) is reported as 11.7 µM (inactive) and the GI50 (A549) is reported as 4.69 µM (inactive). The GI50 (ACHN) was 16.2 µM (inactive), the GI50 (CAKI-1) was 8.24 µM (inactive) and the GI50 (CCRF-CEM) was 1.56 µM (inactive). For the same molecule, the GI50 (COLO 205) was 2.86 µM (inactive), the GI50 (DLD-1) was 4.14 µM (inactive) and the GI50 (DMS-273) was 2.16 µM (inactive). For the same molecule, the GI50 (EKVX) was 11.5 µM (inactive), the GI50 (HCC 2998) was 2.82 µM (inactive) and the GI50 (HCT-116) was 2.19 µM (inactive). For the same molecule, the GI50 (HL-60) was 0.501 µM (active), the GI50 (HOP-18) was 2.91 µM (inactive) and the GI50 (HOP-62) was 8.41 µM (inactive). The GI50 (HT-29) was 2.85 µM (inactive), the GI50 (K562) was 1.49 µM (inactive) and the GI50 (KM-20L2) was 2.46 µM (inactive). For the same molecule, the GI50 (KM12) was 1.64 µM (inactive), the GI50 (LOX IMVI) was 2.59 µM (inactive) and the GI50 (LXFL 529) was 1.37 µM (inactive). The GI50 (M14) was 4.45 µM (inactive), the GI50 (M19-MEL) was 3.05 µM (inactive) and the GI50 (Malme-3M) was 3.65 µM (inactive). The GI50 (NCI-H226) was 1.64 µM (inactive), the GI50 (NCI-H23) was 1.67 µM (inactive) and the GI50 (NCI-H460) was 3.24 µM (inactive). The GI50 (NCI-H522) was 1.14 µM (inactive), the GI50 (OVCAR-3) was 0.804 µM (active) and the GI50 (OVCAR-4) was 6.22 µM (inactive). The GI50 (OVCAR-5) was 2.66 µM (inactive), the GI50 (OVCAR-8) was 3.42 µM (inactive) and the GI50 (RPMI-8226) was 3.5 µM (inactive). The GI50 (RXF 393) was 3.59 µM (inactive), the GI50 (SF-268) was 5.2 µM (inactive) and the GI50 (SF-295) was 4.5 µM (inactive). For the same molecule, the GI50 (SF-539) was 3.83 µM (inactive), the GI50 (SK-MEL-28) was 4.47 µM (inactive) and the GI50 (SK-MEL-5) was 1.66 µM (inactive). The GI50 (SK-OV-3) was 6.53 µM (inactive), the GI50 (SN12C) was 3.13 µM (inactive) and the GI50 (SNB-19) was 3.33 µM (inactive). The GI50 (SNB-75) was 4.5 µM (inactive), the GI50 (SNB-78) was 4.15 µM (inactive) and the GI50 (TK-10) was 3.43 µM (inactive). The GI50 (U-251) was 2.54 µM (inactive), the GI50 (UACC-257) was 0.647 µM (active) and the GI50 (UACC-62) was 3.79 µM (inactive). For the same molecule, the GI50 (UO-31) was 17.4 µM (inactive) and the GI50 (XF498) was 1.16 µM (inactive).
